Legend:
Assay in all cases: c-ponatinib pulldown LC-MS/MS
Assay type in all cases: binding
CDK19 = CDK19 (Homo sapiens, UniProt Q9BWU1)
Procedure: (§1) Drug-affinity matrices were prepared as described previously.[51] In brief, 25 nmol of c-ponatinib were immobilized on 50 μl NHS-activated Sepharose 4 Fast Flow beads (GE Healthcare Bio-Sciences AB, Uppsala, Sweden). 10 mg whole cell lysate was used as protein input per replicate. Affinity chromatography and elution were performed in duplicate. After elution, the enriched proteins were reduced with dithiothreitol (DTT) and cysteine residues were alkylated by incubation with iodoacetamide. The samples were digested with modified porcine trypsin (Promega). Five percent of the digested eluates were purified and concentrated by C18 reversed-phase material. Subsequently, samples were analyzed in duplicates by gel-free one-dimensional LCMS.
(§2) Precursor and MS/MS peaks were extracted from the RAW files and saved in the MGF format using msconvert tool (ProteoWizard Library v2.1.2708, www.proteowizard.sourceforge.net) for subsequent protein identification. An initial database search was performed with broader mass tolerance and conservative score threshold to re-calibrate the mass lists for optimal final protein identification. For the initial protein database search, Mascot (www.matrixscience.com, v2.3.02) was used. Error tolerances on the precursor and fragment ions were ±10 p.p.m. and ±0.6 Da, respectively, and the database search limited to fully-tryptic peptides with maximum one missed cleavage, carbamidomethyl cysteine and methionine oxidation set as fixed and variable modifications, respectively. The Mascot peptide ion score threshold was set to 30, and at least three peptide identifications per protein were required. Searches were performed against the human UniProtKB/SwissProt database (www.uniprot.org release 2013.01) including all protein isoforms. The initial peptide identifications were used to deduce independent linear transformations for precursor and fragment masses that would minimize the mean square deviation of measured masses from theoretical. Re-calibrated mass list files were searched against the same human protein database by a combination of Mascot and Phenyx (GeneBio SA, Geneva, Switzerland; version 2.5.14) search engines using narrower mass tolerances (±4 p.p.m. and ±0.3 Da). One missed tryptic cleavage site was allowed. Carbamidomethyl cysteine was set as a fixed modification and oxidized methionine was set as a variable modification. To validate the proteins, Mascot and Phenyx output files were processed by internally developed parsers. Proteins with ≥2 unique peptides above a score T1, or with a single peptide above a score T2 were selected as unambiguous identifications. Additional peptides for these validated proteins with score >T3 were also accepted. For Mascot searches, the following thresholds were used: T1=14, T2=40 and T3=10; Phenyx thresholds were set to 4.2, 4.75 and 3.5, respectively (P-value<10^−3). The validated proteins retrieved by the two algorithms were merged, any spectral conflicts discarded and grouped according to shared peptides. A false discovery rate of <1% for protein identifications and <0.1% for peptides (including the ones exported with lower scores) was determined by applying the same procedure against a database of reversed protein sequences. […] In addition to Mascot protein scores that were proposed as an estimate of protein abundance by the original algorithm, the modified version also included Phenyx protein scores and spectral counts. The algorithm first estimated three measure-specific P-values for each putative interaction, and, in contrast to,[69] P-value calculation utilized the quantiles of the measurements rather than the original data. The Fisher's method was used to combine the three resulting P-values into a single P-value for drug–protein interaction specificity. We have also correlated interaction P-values with the magnitude of competition effect represented by the fold reduction of spectral counts on free compound competition. […]

MAP3K1 = MAP3K1 (Homo sapiens, UniProt Q13233)
Procedure: as §1, §2

PLEKHF2 = molecular target: T1, PLEKHF2 (Homo sapiens, UniProt Q9H8W4)
T1 sequence (Q9H8W4 1-249): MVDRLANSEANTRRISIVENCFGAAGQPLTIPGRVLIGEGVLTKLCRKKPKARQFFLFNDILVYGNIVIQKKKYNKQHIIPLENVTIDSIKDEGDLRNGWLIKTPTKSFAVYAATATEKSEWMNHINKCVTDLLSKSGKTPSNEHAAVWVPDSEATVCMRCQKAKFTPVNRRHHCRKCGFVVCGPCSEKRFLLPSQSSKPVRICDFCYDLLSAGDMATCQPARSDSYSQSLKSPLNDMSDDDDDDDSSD
Procedure: as §1, §2

PTK2B = PTK2B (Homo sapiens, UniProt Q14289)
Procedure: as §1, §2

RAF1 = RAF1 (Homo sapiens, UniProt P04049)
Procedure: as §1, §2

TCP1 = TCP1 (Homo sapiens, UniProt P17987)
Procedure: as §1, §2

TYK2 = TYK2 (Homo sapiens, UniProt P29597)
Procedure: as §1, §2

UNC119 = UNC119 (Homo sapiens, UniProt Q13432)
Procedure: as §1, §2

UNC119B = UNC119B (Homo sapiens, UniProt A6NIH7)
Procedure: as §1, §2

YWHAG = molecular target: T2, YWHAG (Homo sapiens, UniProt P61981)
T2 sequence (P61981 1-247): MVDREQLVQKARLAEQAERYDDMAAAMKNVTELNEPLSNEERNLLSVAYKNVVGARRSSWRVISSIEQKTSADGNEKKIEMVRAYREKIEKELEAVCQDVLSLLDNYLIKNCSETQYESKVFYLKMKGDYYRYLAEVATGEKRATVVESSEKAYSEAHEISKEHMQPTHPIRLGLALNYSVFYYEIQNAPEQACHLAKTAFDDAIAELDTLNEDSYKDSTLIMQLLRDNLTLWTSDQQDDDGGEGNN
Procedure: as §1, §2

UNC119B, sequence (A6NIH7 whole entry): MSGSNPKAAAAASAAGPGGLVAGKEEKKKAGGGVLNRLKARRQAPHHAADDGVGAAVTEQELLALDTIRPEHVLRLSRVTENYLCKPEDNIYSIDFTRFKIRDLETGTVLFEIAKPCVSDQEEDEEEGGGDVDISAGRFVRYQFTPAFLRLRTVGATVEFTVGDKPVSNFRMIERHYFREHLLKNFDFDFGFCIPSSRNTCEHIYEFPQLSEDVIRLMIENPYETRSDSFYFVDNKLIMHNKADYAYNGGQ
TYK2, sequence (P29597 whole entry): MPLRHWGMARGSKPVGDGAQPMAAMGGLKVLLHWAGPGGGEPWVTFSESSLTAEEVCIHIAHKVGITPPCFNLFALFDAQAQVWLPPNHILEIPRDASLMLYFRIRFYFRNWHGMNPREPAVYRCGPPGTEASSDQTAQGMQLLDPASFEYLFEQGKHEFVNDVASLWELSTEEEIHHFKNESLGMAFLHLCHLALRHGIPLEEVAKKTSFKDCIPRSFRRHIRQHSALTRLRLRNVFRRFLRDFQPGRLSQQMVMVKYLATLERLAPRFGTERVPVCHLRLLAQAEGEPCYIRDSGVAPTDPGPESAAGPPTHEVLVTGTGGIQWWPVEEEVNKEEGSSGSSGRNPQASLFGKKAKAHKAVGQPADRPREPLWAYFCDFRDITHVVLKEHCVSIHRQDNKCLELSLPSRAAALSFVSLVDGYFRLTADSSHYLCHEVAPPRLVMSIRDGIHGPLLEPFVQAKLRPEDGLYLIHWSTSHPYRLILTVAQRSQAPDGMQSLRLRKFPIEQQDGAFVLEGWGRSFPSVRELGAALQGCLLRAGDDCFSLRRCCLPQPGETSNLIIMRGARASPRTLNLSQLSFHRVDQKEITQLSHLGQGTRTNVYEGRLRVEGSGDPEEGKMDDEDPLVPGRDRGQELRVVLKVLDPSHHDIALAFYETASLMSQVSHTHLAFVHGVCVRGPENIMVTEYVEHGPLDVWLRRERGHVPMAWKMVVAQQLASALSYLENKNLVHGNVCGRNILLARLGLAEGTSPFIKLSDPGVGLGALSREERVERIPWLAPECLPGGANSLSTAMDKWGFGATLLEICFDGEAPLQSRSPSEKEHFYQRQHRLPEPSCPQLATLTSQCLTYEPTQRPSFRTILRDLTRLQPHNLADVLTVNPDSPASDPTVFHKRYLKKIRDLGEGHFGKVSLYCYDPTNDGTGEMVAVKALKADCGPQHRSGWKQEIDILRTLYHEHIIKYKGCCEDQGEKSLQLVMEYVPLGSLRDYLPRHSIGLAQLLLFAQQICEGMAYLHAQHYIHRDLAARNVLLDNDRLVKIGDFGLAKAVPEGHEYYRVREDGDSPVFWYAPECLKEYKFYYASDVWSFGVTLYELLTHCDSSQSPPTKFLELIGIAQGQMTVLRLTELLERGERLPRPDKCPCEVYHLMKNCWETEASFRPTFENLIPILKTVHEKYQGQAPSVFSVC
MAP3K1, sequence (Q13233 whole entry): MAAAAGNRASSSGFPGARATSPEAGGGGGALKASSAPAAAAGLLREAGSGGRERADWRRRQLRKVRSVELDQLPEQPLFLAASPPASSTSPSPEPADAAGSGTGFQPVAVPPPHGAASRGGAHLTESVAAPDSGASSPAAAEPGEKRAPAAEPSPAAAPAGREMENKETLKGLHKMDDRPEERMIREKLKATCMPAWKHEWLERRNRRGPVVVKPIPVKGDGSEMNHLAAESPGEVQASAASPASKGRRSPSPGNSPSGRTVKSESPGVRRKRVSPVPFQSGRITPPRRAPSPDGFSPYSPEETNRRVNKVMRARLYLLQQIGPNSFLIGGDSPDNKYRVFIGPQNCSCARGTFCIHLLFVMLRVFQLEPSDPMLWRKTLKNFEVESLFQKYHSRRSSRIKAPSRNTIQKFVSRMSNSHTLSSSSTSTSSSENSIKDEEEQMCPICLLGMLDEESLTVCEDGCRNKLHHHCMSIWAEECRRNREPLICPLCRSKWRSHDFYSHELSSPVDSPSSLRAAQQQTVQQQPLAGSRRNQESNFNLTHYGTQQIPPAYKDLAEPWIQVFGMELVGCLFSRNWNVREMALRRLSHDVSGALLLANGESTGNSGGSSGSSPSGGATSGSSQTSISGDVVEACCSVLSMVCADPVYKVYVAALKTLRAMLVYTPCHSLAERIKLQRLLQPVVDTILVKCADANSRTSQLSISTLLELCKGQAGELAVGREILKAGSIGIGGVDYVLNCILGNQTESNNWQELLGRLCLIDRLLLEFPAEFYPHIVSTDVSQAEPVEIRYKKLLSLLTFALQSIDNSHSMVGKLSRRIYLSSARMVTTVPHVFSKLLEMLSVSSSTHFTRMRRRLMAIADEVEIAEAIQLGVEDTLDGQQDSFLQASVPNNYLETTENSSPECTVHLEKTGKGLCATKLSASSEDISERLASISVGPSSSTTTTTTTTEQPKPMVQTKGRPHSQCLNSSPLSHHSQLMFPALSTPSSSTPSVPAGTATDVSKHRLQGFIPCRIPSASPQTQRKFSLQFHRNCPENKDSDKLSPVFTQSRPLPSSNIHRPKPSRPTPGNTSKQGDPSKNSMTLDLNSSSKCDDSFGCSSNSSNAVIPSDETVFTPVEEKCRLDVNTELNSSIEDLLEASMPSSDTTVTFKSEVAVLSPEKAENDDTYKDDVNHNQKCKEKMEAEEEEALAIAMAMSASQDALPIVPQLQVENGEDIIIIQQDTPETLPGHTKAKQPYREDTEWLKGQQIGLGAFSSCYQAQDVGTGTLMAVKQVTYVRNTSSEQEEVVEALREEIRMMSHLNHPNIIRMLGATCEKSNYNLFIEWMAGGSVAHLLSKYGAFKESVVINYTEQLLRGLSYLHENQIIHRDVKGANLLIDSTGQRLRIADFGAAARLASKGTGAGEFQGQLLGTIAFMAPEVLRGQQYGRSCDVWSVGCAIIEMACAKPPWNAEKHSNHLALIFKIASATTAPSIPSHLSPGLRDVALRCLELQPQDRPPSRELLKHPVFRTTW
TCP1, sequence (P17987 whole entry): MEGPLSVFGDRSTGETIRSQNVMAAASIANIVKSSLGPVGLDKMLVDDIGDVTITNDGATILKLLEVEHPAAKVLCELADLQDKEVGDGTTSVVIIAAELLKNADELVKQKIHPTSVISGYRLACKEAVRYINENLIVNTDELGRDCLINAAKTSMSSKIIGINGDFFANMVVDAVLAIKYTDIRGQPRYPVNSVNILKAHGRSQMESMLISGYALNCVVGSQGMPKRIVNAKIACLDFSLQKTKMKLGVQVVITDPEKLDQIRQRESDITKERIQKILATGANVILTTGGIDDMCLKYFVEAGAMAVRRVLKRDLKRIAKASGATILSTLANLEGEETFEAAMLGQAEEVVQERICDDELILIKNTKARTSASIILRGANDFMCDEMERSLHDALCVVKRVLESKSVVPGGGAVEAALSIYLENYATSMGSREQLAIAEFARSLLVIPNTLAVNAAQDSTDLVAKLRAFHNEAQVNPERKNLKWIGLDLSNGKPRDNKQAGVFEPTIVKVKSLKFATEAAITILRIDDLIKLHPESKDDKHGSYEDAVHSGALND
RAF1, sequence (P04049 whole entry): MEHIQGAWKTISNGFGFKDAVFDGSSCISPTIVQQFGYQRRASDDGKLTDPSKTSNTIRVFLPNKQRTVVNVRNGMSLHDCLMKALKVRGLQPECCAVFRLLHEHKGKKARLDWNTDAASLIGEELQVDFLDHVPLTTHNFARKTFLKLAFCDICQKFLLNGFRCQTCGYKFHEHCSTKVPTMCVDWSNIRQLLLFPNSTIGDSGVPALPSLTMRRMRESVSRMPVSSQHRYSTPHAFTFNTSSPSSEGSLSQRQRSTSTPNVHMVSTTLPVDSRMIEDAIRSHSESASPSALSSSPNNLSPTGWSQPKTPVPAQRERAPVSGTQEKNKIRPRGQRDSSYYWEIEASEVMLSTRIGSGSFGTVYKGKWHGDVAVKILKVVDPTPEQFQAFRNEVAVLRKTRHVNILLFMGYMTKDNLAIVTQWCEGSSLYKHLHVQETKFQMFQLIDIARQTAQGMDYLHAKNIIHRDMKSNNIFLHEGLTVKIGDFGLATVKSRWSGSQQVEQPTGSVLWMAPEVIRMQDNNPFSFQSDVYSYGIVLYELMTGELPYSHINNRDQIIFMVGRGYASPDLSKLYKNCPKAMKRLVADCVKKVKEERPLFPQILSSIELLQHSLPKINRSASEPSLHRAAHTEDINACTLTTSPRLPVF
CDK19, sequence (Q9BWU1 whole entry): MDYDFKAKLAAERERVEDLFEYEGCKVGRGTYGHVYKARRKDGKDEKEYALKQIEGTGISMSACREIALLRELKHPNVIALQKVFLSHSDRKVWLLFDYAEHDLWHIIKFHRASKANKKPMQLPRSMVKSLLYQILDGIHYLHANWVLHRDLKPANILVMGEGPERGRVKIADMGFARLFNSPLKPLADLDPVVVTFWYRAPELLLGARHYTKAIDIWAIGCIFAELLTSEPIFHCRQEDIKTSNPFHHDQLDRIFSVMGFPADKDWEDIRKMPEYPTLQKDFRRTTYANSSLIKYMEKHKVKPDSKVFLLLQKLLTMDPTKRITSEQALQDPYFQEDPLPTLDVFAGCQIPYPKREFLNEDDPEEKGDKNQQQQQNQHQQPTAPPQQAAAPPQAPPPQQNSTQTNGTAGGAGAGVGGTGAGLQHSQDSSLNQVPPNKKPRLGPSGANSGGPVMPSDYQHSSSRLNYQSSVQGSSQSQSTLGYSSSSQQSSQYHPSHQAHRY
CDK19, sequence (P24863 whole entry partner): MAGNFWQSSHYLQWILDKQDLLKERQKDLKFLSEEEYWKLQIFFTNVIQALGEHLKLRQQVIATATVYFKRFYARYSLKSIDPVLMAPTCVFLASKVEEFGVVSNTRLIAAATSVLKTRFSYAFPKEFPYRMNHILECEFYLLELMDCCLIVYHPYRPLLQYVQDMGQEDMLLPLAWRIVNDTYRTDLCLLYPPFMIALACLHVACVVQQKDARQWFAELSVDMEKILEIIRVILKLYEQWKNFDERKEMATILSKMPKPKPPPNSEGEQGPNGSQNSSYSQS

Cc1ccc(C(=O)Nc2ccc(CN3CCN(CCCN)CC3)c(C(F)(F)F)c2)cc1C#Cc1cnc2cccnn12 [c-ponatinib]
Av. SC comp. (CDK19; + free ponatinib): 0
Total SC comp. (CDK19; + free ponatinib): 0
Av. SC (CDK19; no competitor): 7.5
Total SC (CDK19; no competitor): 30
Av. SC comp. (MAP3K1; + free ponatinib): 0
Total SC comp. (MAP3K1; + free ponatinib): 0
Av. SC (MAP3K1; no competitor): 9
Total SC (MAP3K1; no competitor): 36
Av. SC comp. (PLEKHF2; + free ponatinib): 0
Total SC comp. (PLEKHF2; + free ponatinib): 0
Av. SC (PLEKHF2; no competitor): 8.25
Total SC (PLEKHF2; no competitor): 33
Av. SC comp. (PTK2B; + free ponatinib): 0
Total SC comp. (PTK2B; + free ponatinib): 0
Av. SC (PTK2B; no competitor): 32.5
Total SC (PTK2B; no competitor): 130
Av. SC comp. (RAF1; + free ponatinib): 0
Total SC comp. (RAF1; + free ponatinib): 0
Av. SC (RAF1; no competitor): 1.25
Total SC (RAF1; no competitor): 5
Av. SC comp. (TCP1; + free ponatinib): 1.5
Total SC comp. (TCP1; + free ponatinib): 6
Av. SC (TCP1; no competitor): 5
Total SC (TCP1; no competitor): 20
Av. SC comp. (TYK2; + free ponatinib): 0
Total SC comp. (TYK2; + free ponatinib): 0
Av. SC (TYK2; no competitor): 14
Total SC (TYK2; no competitor): 56
Av. SC comp. (UNC119; + free ponatinib): 0
Total SC comp. (UNC119; + free ponatinib): 0
Av. SC (UNC119; no competitor): 20.5
Total SC (UNC119; no competitor): 82
Av. SC comp. (UNC119B; + free ponatinib): 0
Total SC comp. (UNC119B; + free ponatinib): 0
Av. SC (UNC119B; no competitor): 6
Total SC (UNC119B; no competitor): 24
Av. SC comp. (YWHAG; + free ponatinib): 3.25
Total SC comp. (YWHAG; + free ponatinib): 13
Av. SC (YWHAG; no competitor): 11.25
Total SC (YWHAG; no competitor): 45
